# Measured values published in the supplement of paper PMC10307832.
# How the values were obtained:
# Experiment in all cases: relative viability (nuclei count vs DMSO), 5 days (fraction); higher = more cells survive
# [1] = compound: CCOc1cc2ncc(C#N)c(Nc3ccc(OCc4ccccn4)c(Cl)c3)c2cc1NC(=O)/C=C/CN(C)C [Neratinib]
# Procedure, shortened: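 After an overnight hold at 37 °C, lung cancer cell lines in 1536-well plates were pinned with five library-drug doses (not always all listed), each √10 from the next, on vehicle-anchored plates. The cells stayed 5 days without fresh medium, then a one-step fix, permeabilisation and Hoechst stain preceded 4× imaging and MetaXpress nuclear counts. A plate passed only with control CV under 25% and at least one doubling. Viability is the median, over plates, of treated-well nuclei relative to vehicle-well nuclei.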
# [2] = compound: CCOc1cc2ncc(C#N)c(Nc3ccc(OCc4ccccn4)c(Cl)c3)c2cc1NC(=O)/C=C/CN(C)C [Neratinib] + CC(C)C[C@H](NC(=O)[C@H](Cc1ccccc1)NC(=O)c1cnccn1)B(O)O [Bortezomib] (partner 0.002 µM)
# Procedure, shortened: (§1)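 Lung cancer cell lines were seeded in 1536-well plates and dosed by pin tool the next day, with either a single drug or a fixed anchor-drug dose combined with five library-drug doses (not always all listed) spaced in √10 steps. Five days later, one step fixed the cells and stained their nuclei (final 0.05% Triton X-100, 1% formaldehyde, 1 ug/ml Hoechst), and nuclei were counted on 4× images. Relative viability is the nuclei count in treated wells divided by the count in vehicle wells, and each value is the median of duplicate plates.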
# [3] = compound: CCOc1cc2ncc(C#N)c(Nc3ccc(OCc4ccccn4)c(Cl)c3)c2cc1NC(=O)/C=C/CN(C)C [Neratinib] + CC1(C)CCC(c2ccc(Cl)cc2)=C(CN2CCN(c3ccc(C(=O)NS(=O)(=O)c4ccc(N[C@H](CCN5CCOCC5)CSc5ccccc5)c(S(=O)(=O)C(F)(F)F)c4)cc3)CC2)C1 [Navitoclax] (partner 0.5 µM)
# Procedure, shortened: as §1
# [4] = compound: CCOc1cc2ncc(C#N)c(Nc3ccc(OCc4ccccn4)c(Cl)c3)c2cc1NC(=O)/C=C/CN(C)C [Neratinib] + COc1cc2c(Oc3ccc(NC(=O)C4(C(=O)Nc5ccc(F)cc5)CC4)cc3F)ccnc2cc1OCCCN1CCOCC1 [Foretinib] (partner 0.25 µM)
# Procedure, shortened: as §1
# [5] = compound: CCOc1cc2ncc(C#N)c(Nc3ccc(OCc4ccccn4)c(Cl)c3)c2cc1NC(=O)/C=C/CN(C)C [Neratinib] + CS(=O)(=O)CCNCc1ccc(-c2ccc3ncnc(Nc4ccc(OCc5cccc(F)c5)c(Cl)c4)c3c2)o1 [Lapatinib] (partner 2 µM)
# Procedure, shortened: as §1
# [6] = compound: CCOc1cc2ncc(C#N)c(Nc3ccc(OCc4ccccn4)c(Cl)c3)c2cc1NC(=O)/C=C/CN(C)C [Neratinib] + CS(=O)(=O)N1CCN(Cc2cc3nc(-c4cccc5[nH]ncc45)nc(N4CCOCC4)c3s2)CC1 [Pictilisib] (partner 1 µM)
# Procedure, shortened: as §1
# [7] = compound: CCOc1cc2ncc(C#N)c(Nc3ccc(OCc4ccccn4)c(Cl)c3)c2cc1NC(=O)/C=C/CN(C)C [Neratinib] + C[C@@H](Oc1cc(-c2cnn(C3CCNCC3)c2)cnc1N)c1c(Cl)ccc(F)c1Cl [Crizotinib] (partner 1 µM)
# Procedure, shortened: as §1
# [8] = compound: CCOc1cc2ncc(C#N)c(Nc3ccc(OCc4ccccn4)c(Cl)c3)c2cc1NC(=O)/C=C/CN(C)C [Neratinib] + C[C@]1(O)C[C@@H](c2nc(-c3ccc4ccc(-c5ccccc5)nc4c3)c3c(N)nccn32)C1 [Linsitinib] (partner 1 µM)
# Procedure, shortened: as §1
# [9] = compound: CCOc1cc2ncc(C#N)c(Nc3ccc(OCc4ccccn4)c(Cl)c3)c2cc1NC(=O)/C=C/CN(C)C [Neratinib] + Cc1nc(NC(=O)N2CCC[C@H]2C(N)=O)sc1-c1ccnc(C(C)(C)C(F)(F)F)c1 [Alpelisib] (partner 2 µM)
# Procedure, shortened: as §1
# [10] = compound: CCOc1cc2ncc(C#N)c(Nc3ccc(OCc4ccccn4)c(Cl)c3)c2cc1NC(=O)/C=C/CN(C)C [Neratinib] + O=C(c1cc(Cc2n[nH]c(=O)c3ccccc23)ccc1F)N1CCN(C(=O)C2CC2)CC1 [Olaparib] (partner 8 µM)
# Procedure, shortened: as §1
# [11] = compound: CCOc1cc2ncc(C#N)c(Nc3ccc(OCc4ccccn4)c(Cl)c3)c2cc1NC(=O)/C=C/CN(C)C [Neratinib] + CCNC(=O)c1noc(-c2cc(C(C)C)c(O)cc2O)c1-c1ccc(CN2CCOCC2)cc1 [Luminespib] (partner 0.01 µM)
# Procedure, shortened: as §1
# [12] = compound: CCOc1cc2ncc(C#N)c(Nc3ccc(OCc4ccccn4)c(Cl)c3)c2cc1NC(=O)/C=C/CN(C)C [Neratinib] + COc1cccc2cc(-c3nc([C@H]4CC[C@H](C(=O)O)CC4)n4ncnc(N)c34)[nH]c12 [OSI-027] (partner 0.5 µM)
# Procedure, shortened: as §1
# [13] = compound: CCOc1cc2ncc(C#N)c(Nc3ccc(OCc4ccccn4)c(Cl)c3)c2cc1NC(=O)/C=C/CN(C)C [Neratinib] + Cc1cc(Nc2cc(N3CCN(C)CC3)nc(Sc3ccc(NC(=O)C4CC4)cc3)n2)n[nH]1 [Tozasertib] (partner 0.1 µM)
# Procedure, shortened: as §1
# [14] = compound: CCOc1cc2ncc(C#N)c(Nc3ccc(OCc4ccccn4)c(Cl)c3)c2cc1NC(=O)/C=C/CN(C)C [Neratinib] + Cc1nc(Nc2ncc(C(=O)Nc3c(C)cccc3Cl)s2)cc(N2CCN(CCO)CC2)n1 [Dasatinib] (partner 0.075 µM)
# Procedure, shortened: as §1
# [15] = compound: CCOc1cc2ncc(C#N)c(Nc3ccc(OCc4ccccn4)c(Cl)c3)c2cc1NC(=O)/C=C/CN(C)C [Neratinib] + N=C(N)NC(=N)NCCc1ccccc1 [Phenformin] (partner 250 µM)
# Procedure, shortened: as §1
cell line,measurement,setting,value
NCI-H1299,relative viability,[1]; 0.01 µM,1.01
same,relative viability,[1]; 0.1 µM,0.89
same,relative viability,[1]; 0.3162 µM,1.03
same,relative viability,[1]; 1 µM,1.06
same,relative viability,[2]; first compound 0.01 µM,1.03
same,relative viability,[2]; first compound 0.03162 µM,1
same,relative viability,[2]; first compound 0.1 µM,0.965
same,relative viability,[2]; first compound 0.3162 µM,1.03
same,relative viability,[2]; first compound 1 µM,1.1
same,relative viability,[3]; first compound 0.01 µM,1.04
same,relative viability,[3]; first compound 0.03162 µM,1.06
same,relative viability,[3]; first compound 0.1 µM,0.986
same,relative viability,[3]; first compound 0.3162 µM,1.07
same,relative viability,[3]; first compound 1 µM,1.11
same,relative viability,[4]; first compound 0.01 µM,1.1
same,relative viability,[4]; first compound 0.03162 µM,1.09
same,relative viability,[4]; first compound 0.1 µM,1.07
same,relative viability,[4]; first compound 0.3162 µM,1.12
same,relative viability,[4]; first compound 1 µM,1.12
same,relative viability,[5]; first compound 0.01 µM,0.969
same,relative viability,[5]; first compound 0.03162 µM,0.957
same,relative viability,[5]; first compound 0.1 µM,0.938
same,relative viability,[5]; first compound 0.3162 µM,0.976
same,relative viability,[5]; first compound 1 µM,1.04
same,relative viability,[6]; first compound 0.01 µM,0.729
same,relative viability,[6]; first compound 0.03162 µM,0.901
same,relative viability,[6]; first compound 0.1 µM,0.805
same,relative viability,[6]; first compound 0.3162 µM,0.459
same,relative viability,[6]; first compound 1 µM,0.28
same,relative viability,[7]; first compound 0.01 µM,0.991
same,relative viability,[7]; first compound 0.03162 µM,1.02
same,relative viability,[7]; first compound 0.1 µM,0.95
same,relative viability,[7]; first compound 0.3162 µM,0.991
same,relative viability,[7]; first compound 1 µM,1.06
same,relative viability,[8]; first compound 0.01 µM,0.996
same,relative viability,[8]; first compound 0.03162 µM,1.07
same,relative viability,[8]; first compound 0.1 µM,0.846
same,relative viability,[8]; first compound 0.3162 µM,0.944
same,relative viability,[9]; first compound 0.01 µM,1
same,relative viability,[9]; first compound 0.3162 µM,1.04
same,relative viability,[9]; first compound 1 µM,1.04
same,relative viability,[10]; first compound 0.01 µM,0.954
same,relative viability,[10]; first compound 0.03162 µM,0.983
same,relative viability,[10]; first compound 0.1 µM,0.85
same,relative viability,[10]; first compound 0.3162 µM,0.99
same,relative viability,[10]; first compound 1 µM,0.974
Calu-6,relative viability,[1]; 0.01 µM,1.06
same,relative viability,[1]; 0.1 µM,0.992
same,relative viability,[1]; 0.3162 µM,0.955
same,relative viability,[1]; 1 µM,0.835
same,relative viability,[2]; first compound 0.01 µM,1.1
same,relative viability,[2]; first compound 0.1 µM,0.993
same,relative viability,[2]; first compound 0.3162 µM,1
same,relative viability,[2]; first compound 1 µM,0.692
same,relative viability,[3]; first compound 0.01 µM,0.833
same,relative viability,[3]; first compound 0.03162 µM,0.899
same,relative viability,[3]; first compound 0.1 µM,0.975
same,relative viability,[3]; first compound 0.3162 µM,0.734
same,relative viability,[3]; first compound 1 µM,0.523
same,relative viability,[4]; first compound 0.01 µM,0.929
same,relative viability,[4]; first compound 0.03162 µM,0.891
same,relative viability,[4]; first compound 0.1 µM,0.736
same,relative viability,[4]; first compound 0.3162 µM,0.85
same,relative viability,[4]; first compound 1 µM,0.513
same,relative viability,[5]; first compound 0.03162 µM,1.27
same,relative viability,[5]; first compound 0.1 µM,0.967
same,relative viability,[5]; first compound 0.3162 µM,0.95
same,relative viability,[5]; first compound 1 µM,0.64
same,relative viability,[6]; first compound 0.01 µM,0.924
same,relative viability,[6]; first compound 0.03162 µM,1.01
same,relative viability,[6]; first compound 0.1 µM,0.891
same,relative viability,[6]; first compound 0.3162 µM,0.788
same,relative viability,[6]; first compound 1 µM,0.405
same,relative viability,[7]; first compound 0.01 µM,0.905
same,relative viability,[7]; first compound 0.03162 µM,0.939
same,relative viability,[7]; first compound 0.1 µM,0.737
same,relative viability,[7]; first compound 0.3162 µM,0.692
same,relative viability,[7]; first compound 1 µM,0.422
same,relative viability,[8]; first compound 0.01 µM,1.03
same,relative viability,[8]; first compound 0.03162 µM,1.08
same,relative viability,[8]; first compound 0.1 µM,1.02
same,relative viability,[8]; first compound 0.3162 µM,0.899
same,relative viability,[8]; first compound 1 µM,0.824
same,relative viability,[9]; first compound 0.01 µM,0.992
same,relative viability,[9]; first compound 0.03162 µM,1.05
same,relative viability,[9]; first compound 0.1 µM,1.01
same,relative viability,[9]; first compound 0.3162 µM,0.835
same,relative viability,[9]; first compound 1 µM,0.451
same,relative viability,[10]; first compound 0.01 µM,0.507
same,relative viability,[10]; first compound 0.03162 µM,0.643
same,relative viability,[10]; first compound 0.1 µM,0.568
same,relative viability,[10]; first compound 0.3162 µM,0.518
same,relative viability,[10]; first compound 1 µM,0.369
NCI-H1623,relative viability,[1]; 0.03162 µM,0.903
same,relative viability,[1]; 0.1 µM,0.755
same,relative viability,[1]; 0.3162 µM,0.333
same,relative viability,[1]; 1 µM,0.271
same,relative viability,[11]; first compound 0.01 µM,0.663
same,relative viability,[11]; first compound 0.03162 µM,0.566
same,relative viability,[11]; first compound 0.1 µM,0.401
same,relative viability,[11]; first compound 0.3162 µM,0.355
same,relative viability,[11]; first compound 1 µM,0.341
same,relative viability,[4]; first compound 0.01 µM,0.822
same,relative viability,[4]; first compound 0.03162 µM,0.856
same,relative viability,[4]; first compound 0.1 µM,0.621
same,relative viability,[4]; first compound 0.3162 µM,0.31
same,relative viability,[4]; first compound 1 µM,0.241
same,relative viability,[12]; first compound 0.01 µM,0.496
same,relative viability,[12]; first compound 0.03162 µM,0.376
same,relative viability,[12]; first compound 0.1 µM,0.365
same,relative viability,[12]; first compound 0.3162 µM,0.213
same,relative viability,[12]; first compound 1 µM,0.261
same,relative viability,[13]; first compound 0.01 µM,0.477
same,relative viability,[13]; first compound 0.03162 µM,0.424
same,relative viability,[13]; first compound 0.3162 µM,0.224
same,relative viability,[13]; first compound 1 µM,0.229
same,relative viability,[14]; first compound 0.01 µM,0.578
same,relative viability,[14]; first compound 0.03162 µM,0.538
same,relative viability,[14]; first compound 0.1 µM,0.464
same,relative viability,[14]; first compound 0.3162 µM,0.432
same,relative viability,[14]; first compound 1 µM,0.26
same,relative viability,[15]; first compound 0.01 µM,0.598
same,relative viability,[15]; first compound 0.03162 µM,0.589
same,relative viability,[15]; first compound 0.1 µM,0.509
same,relative viability,[15]; first compound 0.3162 µM,0.337
same,relative viability,[15]; first compound 1 µM,0.236
